{"source": "patent US20160067232A1", "about": "“METHODS FOR TREATING A STROKE-RELATED SENSORIMOTOR IMPAIRMENT USING AMINOPYRIDINES” (Acorda Therapeutics, Inc., priority 2011, published 2016)", "key": {"[1]": {"tested_on": "rats with middle cerebral artery occlusion (MCAO)", "assay": "Infarct volume measurement (H&E), MCAO rats (Example 2)", "assay_type": "in vivo, Sprague Dawley rat", "conditions": "Day 63", "protocol": "Euthanasia and post-mortem processing: Infarct Volume analysis. After the last behavioral assessment, rats were anesthetized deeply with ketamine/xylazine (100 mg/kg ketamine, 10 mg/kg xylazine, i.p.) and perfused transcardially with normal saline (with heparin 2 unit/ml) followed by 4% paraformaldehyde or formalin on Day 63. Brains were harvested and processed for histological assessment. A subset of 10 brains per group was processed for infarct volume measurement (H&E staining).\nInfarct measurement: Brains were embedded in paraffin and 5 micron thick coronal sections were cut using a microtome. Sections were stained with hematoxylin and eosin (H&E), using standard methods. Seven coronal sections (+4.7, +2.7, +0.7, −1.3, −3.3, −5.3 and −7.3, compared to bregma respectively) from each brain were photographed by a digital camera, and the infarct area on each slice was determined by NIH Image (Image J) using the “indirect method” (area of the intact contralateral [left] hemisphere−area of intact regions of the ipsilateral [right] hemisphere) to correct for brain edema. Infarct areas were then summed among slices and multiplied by slice thickness (the distance between sections) to give total infarct volume, which was expressed as a percentage of intact contralateral hemispheric volume."}, "[2]": {"tested_on": "rats with middle cerebral artery occlusion (MCAO)", "assay": "Body swing test (% right swing), MCAO rats, double crossover study (Example 2)", "assay_type": "in vivo, Sprague Dawley rat", "conditions": "for Body Swing Test (% right Swing), individual animals: one value per rat", "protocol": "4-AP was evaluated for its ability to promote functional sensorimotor improvement following ischemic stroke in rats with stable motor deficits at times remote from their ischemic events. The animal model mimics the conditions in human ischemic stroke and is produced by middle cerebral artery occlusion (MCAO), which results in extensive infarction in cerebral cortex and striatum, including the cortical spinal tract (white matter).\nIn particular, the MCAO model in Sprague Dawley rats that was utilized in the experiments presented below mimics the conditions in human ischemic stroke. In this model, focal cerebral infarcts were made by permanent occlusion of the proximal right middle cerebral artery (MCA) using a modification of the method of Tamura et al. (No To Shinkei 1986; 38:747-51). Briefly, the temporalis muscle was bisected and reflected through an incision made midway between the eye and the ear canal. The proximal MCA was exposed through a subtemporal craniectomy without removing the zygomatic arch and without transecting the facial nerve.\nDosing and Treatment: Rats were treated in accordance with the dosing schedule shown in Tables 2A, 2B, 3 and FIG. 2, with each Phase being a two week period of time. A solution of 4-AP was used in this experiment. Dosing was started at 4 weeks after ischemic event. 4-aminopyridine was dissolved in water for injection (WFI, Cellgro) and sterile filtered. Final concentrations of 0.315 mg/mL or 1.0 mg/mL of 4-aminopyridine were delivered at 2 mL/kg by gastric gavage, resulting in final doses of 0.63 mg/kg and 2 mg/kg respectively. Vehicle control treatment was WFI delivered at 2 mL/kg by gastric gavage. This study was divided into three treatment phases (1-3) with each randomized cohort of animals receiving a different dose level during each of the treatment phases. Starting on day 30 after MCAO (Day 30, start of phase 1), the animals received gavage dosing of solutions (2 mL/kg) approximately 12 hours apart, for a total of five doses. The same schedule was repeated with different treatment on Day 44 and Day 58 for phase 2 and 3 of the study, respectively. Animals were not treated during the 10 days between phases (washout period).\nTreatment groups: Dosing was started 4 weeks after MCAO surgery. During these 4 weeks, weekly behavioral assessments, as defined below, were performed. Two dose levels of 4-AP plus vehicle control were assessed, with treatment starting at 4 weeks after ischemic event. All dosing was via gastric gavage, volume not to exceed 2 mL/kg. Animals were given the first dose and behavioral assessments were performed starting 60 minutes after dosing. Animals then received the second dose that day at the appropriate time and b.i.d (preferably every 12 hours) thereafter for 2 more days (3 total days of dosing, 5 total doses). One hour after the 5th dose, animals were subjected to behavioral assessments as defined below. Following the final behavioral assessment, drug was withdrawn for 10 or 11 days, behavior was re-assessed, and then animals were re-challenged with a cross-over treatment (Phase 2 of Table 2B) as described in Tables 2A, 2B and 3, followed by the same behavioral testing and dosing regimen. This cross-over was repeated one more time as well (Phase 3 of Table 2B) (see FIG. 2).\nBehavioral test details: Behavioral evaluations were done by evaluators blinded to treatment assignment. Blinded assessments of sensorimotor function were performed just prior to MCAO surgery, 24 hours after MCAO surgery and weekly thereafter until the first phase of dosing using limb placing and body swing behavioral tests. As described above, behavioral assessments were timed exactly with dosing times. Animals were tested one hour after the 1st and 5th doses of each phase (i.e., Days 30 and 32 of the first phase, Days 44 and 46 of the second phase; and Days 58 and 60 of the third phase); animals were also tested during the washout periods on Days 42 and 56. […]"}}, "note": "Where “and” joins values, the source holds several entries; their conditions need not be identical. Identical values can stand only once."}
{"smiles": "Nc1ccncc1", "note": "[4-aminopyridine]", "values": [{"measurement": "Mean infarct volume (% of contralateral hemisphere)", "setting": "[1]; Group 1 (sequence high, low, vehicle)", "result": "45.0 (±1.8) %"}, {"measurement": "Mean infarct volume (% of contralateral hemisphere)", "setting": "[1]; Group 2 (sequence low, vehicle, high)", "result": "41.4 (±2.3) %"}, {"measurement": "Mean infarct volume (% of contralateral hemisphere)", "setting": "[1]; Group 3 (sequence vehicle, high, low)", "result": "39.0 (±3.3) %"}, {"measurement": "Body swing function, low dose compared to vehicle, second mixed model", "setting": "[2]; 0.63 mg/kg b.i.d. p.o., level 0.05", "result": "didn't show the statistical significant improvement"}, {"measurement": "Body swing function, low dose compared to vehicle, first mixed model", "setting": "[2]; 0.63 mg/kg b.i.d. p.o., p=0.033", "result": "significantly improved the body swing function"}, {"measurement": "Body swing function, high dose compared to vehicle", "setting": "[2]; 2 mg/kg b.i.d. p.o., first mixed model p=0.0131, second p<0.0001", "result": "significantly improved the body swing function"}, {"measurement": "Body Swing Test (% right Swing), individual animals", "setting": "[2]; Group 1 (sequence hlv), D30 after MCAO, phase 1, high dose", "result": "33.33% and 40.00% (2×) and 30.00%"}, {"measurement": "Body Swing Test (% right Swing), individual animals", "setting": "[2]; Group 1 (sequence hlv), D32 after MCAO, phase 1, high dose", "result": "50.00% (3×) and 40.00% (2×) and 30.00%"}, {"measurement": "Body Swing Test (% right Swing), individual animals", "setting": "[2]; Group 1 (sequence hlv), D44 after MCAO, phase 2, low dose", "result": "33.33% and 50.00% and 40.00% (2×) and 30.00% (2×)"}, {"measurement": "Body Swing Test (% right Swing), individual animals", "setting": "[2]; Group 1 (sequence hlv), D46 after MCAO, phase 2, low dose", "result": "33.33% and 30.00% and 20.00% (2×) and 40.00%"}, {"measurement": "Body Swing Test (% right Swing), individual animals", "setting": "[2]; Group 2 (sequence lvh), D30 after MCAO, phase 1, low dose", "result": "20.00% and 40.00% and 30.00% (2×)"}, {"measurement": "Body Swing Test (% right Swing), individual animals", "setting": "[2]; Group 2 (sequence lvh), D32 after MCAO, phase 1, low dose", "result": "40.00% and 30.00% (2×)"}, {"measurement": "Body Swing Test (% right Swing), individual animals", "setting": "[2]; Group 2 (sequence lvh), D58 after MCAO, phase 3, high dose", "result": "40.00% and 50.00% (2×)"}, {"measurement": "Body Swing Test (% right Swing), individual animals", "setting": "[2]; Group 2 (sequence lvh), D60 after MCAO, phase 3, high dose", "result": "40.00% (5×) and 50.00% (4×)"}, {"measurement": "Body Swing Test (% right Swing), individual animals", "setting": "[2]; Group 3 (sequence vhl), D44 after MCAO, phase 2, high dose", "result": "40.00% (3×) and 43.33% (2×) and 46.67% (2×) and 53.33% and 13.33% and 36.67% and 50.00% (2×) and 23.33% and 33.33%"}, {"measurement": "Body Swing Test (% right Swing), individual animals", "setting": "[2]; Group 3 (sequence vhl), D46 after MCAO, phase 2, high dose", "result": "40.00% (3×) and 43.33% (4×) and 50.00% and 30.00% (2×) and 53.33% (3×) and 20.00% and 23.33%"}, {"measurement": "Body Swing Test (% right Swing), individual animals", "setting": "[2]; Group 3 (sequence vhl), D58 after MCAO, phase 3, low dose", "result": "30.00% (3×) and 46.67% (3×) and 40.00% (2×) and 20.00% (3×) and 53.33% and 33.33%"}, {"measurement": "Body Swing Test (% right Swing), individual animals", "setting": "[2]; Group 3 (sequence vhl), D60 after MCAO, phase 3, low dose", "result": "30.00% (2×) and 43.33% (2×) and 36.67% (4×) and 50.00% (2×) and 26.67% and 23.33%"}, {"measurement": "Body swing scores, Day 56 vs. Day 60", "setting": "[2]; Group 3, third treatment phase, low dose 0.63 mg/kg", "result": "unchanged"}, {"measurement": "Effect on global body control, body swing test (FIG. 5)", "setting": "[2]; low or high dose, reversible and dose-dependent", "result": "effective to improve global body control"}]}
